The values that follow come from paper PMC10534672, “A Nucleus-Targeting WT1 Antagonistic Peptide Encapsulated in Polymeric Nanomicelles Combats Refractory Chronic Myeloid Leukemia” (Pharmaceutics, 2023).

Ends that are not written are not given here.

One data set has as its system myeloid leukemia. As to conditions: cited from earlier work. From the text:
In CML, the influence of WT1 stems from its robust transcriptional control of genes associated with cell growth, metabolism, differentiation, and apoptosis. Interventions targeting WT1 can induce cell cycle arrest and apoptosis. […] Similarly, WT1-specific RNA interference led to an increase in G0/G1-phase cells and a decrease in S-phase cells. In this study, the WIP2W peptide halted the cell cycle in ...

Data set [1] relates to WT1+ BP-CML xenograft (K562) mice. The data set can be described thus: Splenic infiltration (Ki67 staining of spleen). As to conditions: after 14 days daily treatment, n = 3. Format: in vivo, BALB/c nude mice.
Data set [2] deals with K562 cells. Here is the method: (§1) K562 (1.5 × 10^4/well) and L02 (8 × 10^3/well) cells were seeded in 96-well plates and incubated with gradient concentrations of peptides or micelles in complete mediums. After 24 or 48 h of incubation, each well was spiked with CCK-8 agent (10 μL) for another 2 h. Absorption was detected by a spectrophotometer at 450 nm (Molecular Devices, San Jose, CA, USA), and IC50 values were calculated by curve fitting.

For another data set, the system named is L02 cells. In words: Cytotoxicity assay (CCK-8). As to conditions: L02, up to 40 μM, 24 h. The method, then:
as §1

The test system of data set [3] is K562 cells. The data set can be described thus: Cell cycle analysis (PI, flow cytometry). Format: cell-based, human. The settings on record: K562, 10 μM, 24 h. Here is the method:
K562 cells were incubated in the absence and presence of WIP2W (10 μM) for 24 h. Subsequently, these cells were collected and fixed with 75% cold ethanol overnight, followed by treatment with propidium iodide (PI) and RNase A. Then, the cell fluorescence was examined using flow cytometry, and the cell cycle profiles were analyzed using FlowJo 10.

Data set [4] deals with K562 cells. In words: Cellular uptake by flow cytometry. The settings on record: FITC-WIP2W 0.05, 0.5 and 5 μM, K562, 37 °C, 2 h, n = 3. In kind it is cell-based, human. Here is the method:
The percentage of positive cells and their mean fluorescence intensity were then analyzed using a flow cytometer, with each condition tested in triplicate (n = 3).

Data set [5] concerns K562 cells. In words: Intracellular localization by confocal laser scanning microscopy. As to conditions: FITC-WIP2W 10 μM, K562, 37 °C, 3.5 h, Hoechst33342. In kind it is cell-based, human. Here is the method: The precise localization of WIP2W was identified using the same microscope. K562 cells, after being exposed to FITC-WIP2W (10 μM) at 37 °C for 3.5 h, were gathered and stained with Hoechst33342. They were then moved to confocal dishes, where fluorescence data were captured.

Data set [6] is described as follows: Encapsulation efficiency of PEG-PE micelles by ultrafiltration. The settings on record: n = 3. In kind it is physicochemical. The method, then: The ability of PEG-PE micelles to encapsulate WIP2W was assessed using an ultrafiltration method. Solutions of FITC-WIP2W-loaded micelles (with PEG-PE concentrations of 5, 10, 30, 50, 100, and 200 μM, and FITC-WIP2W at 10 μM) were placed into an ultra-centrifugal filter (MWCO 100,000, Millipore, Burlington, MA, USA). They were then centrifuged at 12,000× g for 30 min. The fluorescence intensity of the filtrate was subsequently measured spectrophotometrically. A concentration-to-fluorescence intensity relationship was then derived to determine the amount of unencapsulated FITC-WIP2W in the filtrate. From this, the encapsulation efficiency (EE%) of PEG-PE micelles for WIP2W can be calculated, as shown below. EE% = incorporated WIP2W/initial WIP2W added × 100%(1)

The subject of data set [7] is WT1+ BP-CML xenograft (K562) mice. The data set can be described thus: In vivo antitumor efficiency. The settings on record: tumors excised after 14 days daily s.c. treatment, WIP2W 30 mg/kg. More on the design: species or system BALB/c nude mice.
Description: These tumor-bearing mice were then randomly assigned to one of four groups (n = 5 per group). […] The subcutaneous tumor volume (mm^3) and body weight (g) were recorded three times per week, and the tumor volume can be computed according to the following equation:Tumor volume (mm^3) = L × W × W/2(2) where “L” and “W” denote the maximum and minimum dimensions, respectively. On day 19, the mice were slaughtered, and the retrieved major organs and tumors were stained with hematoxylin and eosin (H&E), WT1, and Ki67, respectively.
The test system is the same in data set [8]. As to conditions: single subcutaneous injection, 30 mg/kg WIP2W (FITC-labelled), 4 h, IVIS of heart, liver, spleen, lung, kidney.
Description: In this study, a WT1^+ BP-CML xenograft mouse model was developed. K562 cells (1 × 10^7/animal) were injected subcutaneously into the flanks of 5-week-old female BALB/c nude mice to generate primary BP-CML tumors. Once the tumors became noticeable, the mice were euthanized, and tumor cells were harvested. These cells were then reintroduced subcutaneously into a new set of hosts (1 × 10^7/animal) for further therapeutic investigations. […] Four hours post-administration, the mice were euthanized. Their tumors and primary organs were then extracted and assessed for fluorescence using IVIS (in vivo imaging system) equipment from PerkinElmer, USA.
A short description of data set [9]: Biological safety in vivo (body weight, H&E of major organs).
The target of data set [10] is T1, WT1 protein (Homo sapiens, UniProt P19544). The data set can be described thus: Pull-down assay with biotin-WIP2W on streptavidin magnetic beads, anti-WT1 immunoblot. The settings on record: nuclear and cytoplasmic protein lysates of K562 cells, 2 h at 25 °C, anti-WT1 Western blot. More on the design: incubated with protein lysates, including the nuclear and cytoplasmic proteins from K562 cells; endogenous in cells; host or cells: K562 cells. In kind it is binding. The method, then: Proteins from different localizations were harnessed for peptide–protein interaction studies. […] The bound WIP2W beads were magnetically separated, discarding the unattached WIP2W molecules in the leftover solution. The combined protein extracts from the whole cell, nucleus, and cytoplasm were then exposed to the WIP2W beads for another 2 h at 25 °C. Finally, the bead eluates were probed using an anti-WT1 antibody.

For data set [11], the target named is T1, WT1 protein. The data set can be described thus: WT1 immunohistochemistry of excised tumors. Format: in vivo, BALB/c nude mice. Details: The excised tumors underwent immunohistochemical analysis using an anti-WT1 antibody; from tissue; host or cells: excised K562 xenograft tumours from BALB/c nude mice. The settings on record: anti-WT1 IHC, after 14 days daily s.c. treatment, WIP2W 30 mg/kg. From the text: […]. […] […].

T1 sequence (P19544 whole entry): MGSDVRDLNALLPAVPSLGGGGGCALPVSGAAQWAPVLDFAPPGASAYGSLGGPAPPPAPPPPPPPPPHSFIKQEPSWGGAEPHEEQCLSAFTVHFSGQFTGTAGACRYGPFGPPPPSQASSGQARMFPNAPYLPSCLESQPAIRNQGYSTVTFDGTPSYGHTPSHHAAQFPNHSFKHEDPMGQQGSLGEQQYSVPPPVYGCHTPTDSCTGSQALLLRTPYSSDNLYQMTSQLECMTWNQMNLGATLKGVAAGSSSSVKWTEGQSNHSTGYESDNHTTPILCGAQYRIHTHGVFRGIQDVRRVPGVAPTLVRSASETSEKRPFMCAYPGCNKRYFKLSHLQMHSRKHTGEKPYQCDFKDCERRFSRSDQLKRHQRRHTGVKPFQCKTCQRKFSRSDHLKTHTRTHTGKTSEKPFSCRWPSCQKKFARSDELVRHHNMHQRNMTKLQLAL

On to `COc1cc(/C=C/C(=O)CC(=O)/C=C/c2ccc(O)c(OC)c2)ccc1O` [curcumin], for which the “Effect on cell cycle progression” value in the data set with myeloid leukemia is “induce cell death and G2/M phase arrest”.

Regarding `Cc1ccc(NC(=O)c2ccc(CN3CCN(C)CC3)cc2)cc1Nc1nccc(-c2cccnc2)n1` [imatinib, reference compound], the “Ki67 staining of spleen (splenic infiltration of CML cells)” value in data set [1] is listed as “pronounced fluorescence in the spleen”.

WWGGDQRRSWGRRRPDRRYGRKKRRQRRR [WIP2W] had a Cell viability in the data set on K562 cells [2] (K562, 20 μM, 24 h, CCK-8, PBS control = 100%) of under 10%. Besides, the IC50 with K562 cells [2] (read-out: IC50 (concentration that inhibited 50% K562 cell proliferation), K562, 24 h, CCK-8, n = 6) amounted to 9.7 µM. Further, the “Cytotoxicity in normal hepatic cell line L02” value with L02 cells is on record as “no apparent cytotoxicity”. Besides, the “G2/M phase compartment of cell cycle distribution” value in the data set with K562 cells [3] (n = 3 (control 22.4%)) is 14.1%. For the same molecule, the “G0/G1 phase compartment of cell cycle distribution” value with K562 cells [3] (n = 3 (control 24.1%)) amounted to 32.4%. Besides, the Cellular uptake result in the data set on K562 cells [4] was “concentration dependency”. Also, the Intracellular localization result in the data set with K562 cells [5] is on record as “majority of the green fluorescence was pinpointed in K562 cells’ nuclei”. The “Encapsulation efficiency (EE%)” value in [6] (molar ratio PEG-PE:WIP2W 3:1, FITC-WIP2W 10 μM in PBS, ultrafiltration MWCO 100,000, fluorescence) is listed as “approximately 72%”; in [6] (molar ratio PEG-PE:WIP2W surpassed 10, FITC-WIP2W 10 μM in PBS, ultrafiltration, fluorescence) it was “exceeded 95%”. Besides, the “H&E staining of tumor tissues” value in data set [7] is on record as “pronounced cell death”. Also, in data set [1], the “Ki67 staining of spleen (splenic infiltration of CML cells)” value was “negligible signs of metastatic CML cells in the spleen”. Besides, the “Distribution in major organs” value in data set [8] is “predominantly distributed in the liver and kidneys”. Also, the Body weight result in [9] (14 days daily treatment, compared to control and imatinib groups) is recorded as “no significant weight loss”. Also, the “H&E staining of major organs (systemic toxicity)” value in data set [9] (after 14 days daily treatment, imatinib 50 mg/kg i.p., WIP2W 30 mg/kg s.c.) is listed as “minimal systemic toxicity”. In addition, the “Binding of WIP2W to WT1 protein (pull-down)” value on WT1 protein [10] was “specifically bind to the WT1 protein in both the nucleus and cytoplasm”. The “WT1 protein levels in tumor tissues relative to controls” value on WT1 protein [11] is listed as “significantly diminished”.
